Experimental data published in ChEMBL document CHEMBL5303304, “EUbOPEN Chemogenomics Library - IncuCyte” (2023).

Legend:
Assay type in all cases: toxicity, cell-based
[1] = system: Fibroblast; assay: Incucyte cell viability with human fibroblast; details: 10 µM, compound concentration 10 uM
[2] = system: U2OS; assay: Incucyte cell viability with U2OS; details: human, 10 µM, compound concentration 10 uM
[3] = system: HEK-293T; assay: Incucyte cell viability with HEK293T; details: human, 10 µM, compound concentration 10 uM
Note: unitless GR value; below 1 slowed growth and below 0 cell loss.

Structure (SMILES)	Growth Rate ([1]; 0 h, replicate number 1)	Growth Rate ([1]; 12 h, replicate number 1)	Growth Rate ([1]; 12 h, replicate number 2)	Growth Rate ([1]; 18 h, replicate number 1)	Growth Rate ([1]; 18 h, replicate number 2)	Growth Rate ([1]; 24 h, replicate number 1)	Growth Rate ([1]; 24 h, replicate number 2)	Growth Rate ([2]; 12 h, replicate number 2)	Growth Rate ([2]; 18 h, replicate number 2)	Growth Rate ([2]; 24 h, replicate number 1)	Growth Rate ([3]; 0 h, replicate number 1)	Growth Rate ([3]; 6 h, replicate number 1)	Growth Rate ([3]; 18 h, replicate number 1)	Growth Rate ([3]; 18 h, replicate number 2)	Growth Rate ([3]; 24 h, replicate number 1)	Growth Rate ([3]; 24 h, replicate number 2)	Growth Rate ([2]; 0 h, replicate number 1)	Growth Rate ([2]; 18 h, replicate number 1)	Growth Rate ([3]; 6 h, replicate number 2)	Growth Rate ([3]; 12 h, replicate number 1)	further results
CC1(C)Cc2nc(C3CCCC3)c([C@@H](F)c3ccc(C(F)(F)F)cc3)c(C3CCCCC3)c2[C@@H](O)C1	-0.22	0.46	0.89	0.51	0.82	0.38	0.95	0.54	0.82	0.87	0.94	0.88	0.88	0.91	0.83	0.89					Growth Rate ([1]; 0 h, replicate number 2): -0.59; Growth Rate ([1]; 6 h, replicate number 1): 0.71; Growth Rate ([2]; 0 h, replicate number 2): 0.96; Growth Rate ([2]; 6 h, replicate number 2): 0.48; Growth Rate ([3]; 0 h, replicate number 2): -0.11
CCc1cnn2c(NCc3ccc[n+]([O-])c3)cc(N3CCCCC3CCO)nc12 (stereo unspecified)	-0.96	0.25	-0.13	0.16	-0.04	0.25	-0.14	0.11	-0.08	-0.23	-0.01	-0.39	-0.2	-0.53	-0.14	-0.41	-0.62	-0.15	-0.72	-0.26	Growth Rate ([1]; 0 h, replicate number 2): 0.67; Growth Rate ([1]; 6 h, replicate number 1): 0.11; Growth Rate ([1]; 6 h, replicate number 2): 0; Growth Rate ([2]; 0 h, replicate number 2): 0.91; Growth Rate ([2]; 6 h, replicate number 1): 0.19; Growth Rate ([2]; 6 h, replicate number 2): 0.07; Growth Rate ([2]; 12 h, replicate number 1): -0.08; Growth Rate ([3]; 12 h, replicate number 2): -0.66
CCCCOc1c(C(=O)c2c(F)cc(C)cc2F)c[nH]c2nncc1-2	-1										-1						-1				
CN(C(=O)CCOCCOCCOCCOCCNc1cccc2c1C(=O)N(C1CCC(=O)NC1=O)C2=O)[C@H]1CC[C@@]2(C)[C@@H](CC[C@@H]3[C@@H]2CC[C@]2(C)[C@@H](c4ccc5ccncc5c4)CC[C@@H]32)C1 (stereo partly specified)	-1				0.88		0.91	-0.46		0.92	0.06	0.57	0.76	0.79	0.88	0.76		0.82	1	0.77	Growth Rate ([2]; 6 h, replicate number 1): 0.52; Growth Rate ([2]; 12 h, replicate number 1): 0.79; Growth Rate ([3]; 0 h, replicate number 2): -0.85; Growth Rate ([3]; 12 h, replicate number 2): 0.73
C=CC(=O)Nc1ccc(C(=O)Nc2n[nH]c3c2CN(C(=O)N[C@H](CN(C)C)c2ccccc2)C3(C)C)cc1		0.56	0.45	0.18	0.06	0.19	-0.02	-0.41	0.97	0.76	-0.5	0.11	0.02	-0.27	0.03	-0.16	-1	0.84	-0.51	0.02	Growth Rate ([1]; 0 h, replicate number 2): -0.72; Growth Rate ([1]; 6 h, replicate number 2): 0.71; Growth Rate ([2]; 6 h, replicate number 2): 1; Growth Rate ([3]; 12 h, replicate number 2): -0.3
CC(C)S(=O)(=O)c1ccccc1Nc1nc(N[C@@H]2CCCN(CCCCCCCNC(=O)COc3cccc4c3C(=O)N(C3CCC(=O)NC3=O)C4=O)C2)ncc1Cl (stereo partly specified)	-1	-0.39	-0.49	-0.33	-0.45	-0.23	-0.45	0.57	0.15	-0.23	-1	-0.44	-0.31	-0.49	-0.24	-0.38	-1	0.03	-0.73	-0.41	Growth Rate ([1]; 6 h, replicate number 1): -0.22; Growth Rate ([1]; 6 h, replicate number 2): 0.14; Growth Rate ([2]; 6 h, replicate number 1): 0.86; Growth Rate ([2]; 12 h, replicate number 1): 0.25; Growth Rate ([2]; 24 h, replicate number 2): 0.04; Growth Rate ([3]; 12 h, replicate number 2): -0.59
Cn1cc(-n2cnc3c(NCc4nc5cc(Cl)c(Cl)cc5[nH]4)nc(N4CCOCC4)nc32)cn1	-1	0.37	-0.22	0.46	-0.06	0.54	0	-0.72	-0.54	-0.09	-0.86	-0.17	-0.23	-0.48	-0.18	-0.36	-0.99	0.1	-0.51	-0.21	Growth Rate ([1]; 0 h, replicate number 2): -0.31; Growth Rate ([1]; 6 h, replicate number 1): 0.08; Growth Rate ([1]; 6 h, replicate number 2): -0.32; Growth Rate ([2]; 0 h, replicate number 2): -0.97; Growth Rate ([2]; 6 h, replicate number 2): -0.74; Growth Rate ([2]; 12 h, replicate number 1): 0.64; Growth Rate ([2]; 24 h, replicate number 2): -0.53; Growth Rate ([3]; 0 h, replicate number 2): 0.65; Growth Rate ([3]; 12 h, replicate number 2): -0.56
CC(C)S(=O)(=O)c1ccccc1Nc1nc(N[C@@H]2CCCN(CCCCCCCNC(=O)COc3cccc4c3C(=O)N(C3CCC(=O)N(C)C3=O)C4=O)C2)ncc1Cl (stereo partly specified)	-1	-0.14	-0.21	-0.33	-0.36	-0.23	-0.36	0.08	-0.14	-0.24	-1	-0.52	-0.33	-0.5	-0.27	-0.39	-1	-0.06	-0.7	-0.4	Growth Rate ([1]; 6 h, replicate number 1): 0.41; Growth Rate ([1]; 6 h, replicate number 2): 0.48; Growth Rate ([2]; 6 h, replicate number 1): 0.42; Growth Rate ([2]; 6 h, replicate number 2): 0.49; Growth Rate ([2]; 12 h, replicate number 1): 0.11; Growth Rate ([2]; 24 h, replicate number 2): -0.2; Growth Rate ([3]; 0 h, replicate number 2): -0.99; Growth Rate ([3]; 12 h, replicate number 2): -0.61
